Test results from ChEMBL document CHEMBL4390694, “Benzofuran-isatin hybrids tethered via different length alkyl linkers and their in vitro anti-mycobacterial activities” (Bioorg Med Chem, 2019).
In brackets after ≈: the same amount, converted by molar mass.

How the values were obtained:
[1] = Selectivity index, ratio of CC50 for cytotoxicity against African green monkey Vero cells to MIC for antimycobacterial activity against drug-susceptible Mycobacterium tuberculosis H37Rv; type: toxicity, cell-based; conditions: read-out: Selectivity Index
[2] = Cytotoxicity against African green monkey Vero cells assessed as decrease in cell viability after 72 hrs by MTT assay; type: cell-based; conditions: chlorocebus sabaeus
[3] = test system: Mycobacterium tuberculosis; experiment: Antimycobacterial activity against drug-susceptible Mycobacterium tuberculosis H37Rv assessed as complete inhibition of bacterial growth incubated for 7 days by rapid direct susceptibility test; type: functional; conditions: 168 h
[4] = Elimination half life in ICR mouse at 25 mg/kg, po administered as single dose and measured up to 24 hrs post dose; type: ADME, organism-based; conditions: in vivo, read-out: beta t1/2 (converted)
[5] = AUC (0 to infinity) in ICR mouse at 25 mg/kg, po administered as single dose and measured up to 24 hrs post dose; type: ADME, organism-based; design: dose 25 mg/kg, time infinity, route oral; conditions: in vivo
[6] = Tmax in ICR mouse at 25 mg/kg, po administered as single dose and measured up to 24 hrs post dose; type: ADME, organism-based; conditions: in vivo
[7] = Metabolic stability in mouse liver microsomes assessed as half life; type: ADME, Microsome
[8] = Cmax in ICR mouse at 25 mg/kg, po administered as single dose and measured up to 24 hrs post dose; type: ADME, organism-based; design: dose 25 mg/kg, route oral; conditions: in vivo

Row | Structure (SMILES) | selectivity ratio [1] | CC50 at 72 h [2] [µM] | MIC [3] [µg/mL] | half-life [4] [h] | AUC(0-inf) [5] [ng·h/mL] | Tmax [6] [h] | half-life [7] [h] | Cmax [8] [ng/mL]
1 | CCOC(=O)c1c(-c2ccc(F)cc2)oc2ccc(OCCCCCCN3C(=O)C(=O)c4cc(F)ccc43)cc12 | 2048 | 512 | 0.25 (≈ 0.457 µM) | – | – | – | – | –
2 | CNC(=O)c1c(-c2ccc(O)cc2)oc2ccc(O)c(CN3CCCCC3)c12 | > 16400 | > 1020 | < 0.06 | 8.59 | 31800 | 3.12 | > 1 | 6830
3 | CCOC(=O)c1c(-c2ccc(OC)cc2)oc2ccc(OCCCCCN3C(=O)C(=O)c4cc(F)ccc43)cc12 | 512 | 128 | 0.25 (≈ 0.458 µM) | – | – | – | – | –
4 | CCOC(=O)c1c(-c2ccc(F)cc2)oc2ccc(OCCCCCN3C(=O)C(=O)c4cc(OC)ccc43)cc12 | 256 | 128 | 0.5 (≈ 0.916 µM) | – | – | – | – | –
5 | CCOC(=O)c1c(-c2ccccc2)oc2ccc(OCCCN3C(=O)C(=O)c4cc(OC)ccc43)cc12 | 1024 | 256 | 0.25 (≈ 0.5 µM) | – | – | – | – | –
6 | CCOC(=O)c1c(-c2ccc(OC)cc2)oc2ccc(OCCCN3C(=O)C(=O)c4cc(F)ccc43)cc12 | 512 | 256 | 0.5 (≈ 0.966 µM) | – | – | – | – | –
7 | CCOC(=O)c1c(-c2ccc(OC)cc2)oc2ccc(OCCCN3C(=O)C(=O)c4ccccc43)cc12 | 64 | 64 | 1 (≈ 2 µM) | – | – | – | – | –
8 | CCOC(=O)c1c(-c2ccc(F)cc2)oc2ccc(OCCCN3C(=O)C(=O)c4ccccc43)cc12 | 128 | 256 | 2 (≈ 4.1 µM) | – | – | – | – | –
9 | CCOC(=O)c1c(-c2ccc(OC)cc2)oc2ccc(OCCCCN3C(=O)C(=O)c4cc(OC)ccc43)cc12 | 32 | 64 | 2 (≈ 3.68 µM) | – | – | – | – | –
10 | CCOC(=O)c1c(-c2ccc(OC)cc2)oc2ccc(OCCCCCCN3C(=O)C(=O)c4ccccc43)cc12 | 1024 | 256 | 0.25 (≈ 0.462 µM) | – | – | – | – | –
11 | CCOC(=O)c1c(-c2ccc(OC)cc2)oc2ccc(OCCCCCCN3C(=O)C(=O)c4cc(F)ccc43)cc12 | 1024 | 128 | 0.125 (≈ 0.223 µM) | 2.48 | 3680 | 1.76 | 0.527 | 1220
12 | CCOC(=O)c1c(-c2ccc(OC)cc2)oc2ccc(OCCCCN3C(=O)C(=O)c4ccccc43)cc12 | > 2048 | > 1020 | 0.5 (≈ 0.974 µM) | – | – | – | – | –
13 | CCOC(=O)c1c(-c2ccc(F)cc2)oc2ccc(OCCCN3C(=O)C(=O)c4cc(F)ccc43)cc12 | 512 | 512 | 1 (≈ 1.98 µM) | – | – | – | – | –
14 | CCOC(=O)c1c(-c2ccc(F)cc2)oc2ccc(OCCCN3C(=O)C(=O)c4cc(OC)ccc43)cc12 | 128 | 128 | 1 (≈ 1.93 µM) | – | – | – | – | –
15 | NNC(=O)c1ccncc1 [ISONIAZID] | – | – | 0.06 (≈ 0.438 µM) | – | – | – | – | –
16 | CO[C@H]1/C=C/O[C@@]2(C)Oc3c(C)c(O)c4c(O)c(c(/C=N/N5CCN(C)CC5)c(O)c4c3C2=O)NC(=O)/C(C)=C\C=C\[C@H](C)[C@H](O)[C@@H](C)[C@@H](O)[C@@H](C)[C@H](OC(C)=O)[C@@H]1C [RIFAMPIN] | – | – | 0.5 (≈ 0.608 µM) | – | – | – | – | –
